Assay results as given in patent publication US12509414B2, “Carbon quantum dot, a composition thereof and a method for treating infection by using same” (NATIONAL TAIWAN OCEAN UNIVERSITY, priority 2019, dated 2025).

System: E. coli (Escherichia coli)
Assay: Antibacterial test, MIC by standard dilution method (O.D. 600)
Format: cell-based
Conditions: FIG. 4
Method: The minimum inhibitory concentration (MIC) value of a carbon quantum dot was determined by a standard dilution method in a variety of tested bacterial strains, including E. coli (Escherichia coli), P. aeruginosa (Pseudomonas aeruginosa), S. enteritidis (Salmonella enterica), S. aureus (Staphylococcus aureus), MRSA (Methicillin-resistant Staphylococcus aureus, a multi-drug resistant Staphylococcus), S. iniae (Streptococcus iniae), and C. albicans (Candida albicans).
A single colony of each strain was removed from the culture medium, and inoculated in each suitable growth medium (10 mL). The cultured bacteria were grown at 37° C. with shaking (200 rpm), until the absorbance at 600 nm (O.D. 600) reaches 1.0 (optical path length: 1.0 cm). Each cell mixture was centrifuged at 1.0 mL (RCF 3,000×g, […], 25° C.), and washed twice with 5 mM sodium phosphate buffer (pH 7.4) before further use. The carbon quantum dots were mixed with a 10^5 CFU/mL bacterial solution, and the final concentration of the reaction bacterial solution was 10^4 CFU/mL. After reaction for 3 hours, each suitable growth medium was added. After 12 hours of incubation in the incubator at the culture temperature of each strain, the absorbance at 600 nm (O.D. 600) was measured.

NCCCCCCN [C, 1,6-diamino-hexane]
antibacterial ability (comparison in words): worst antibacterial effect
